The structures appear in SMILES notation.

The target of assay [1] is T1, human recombinant HDAC1 (Homo sapiens, UniProt Q13547).
T1 construct: purchased Enzo Life Science BML-SE456
The assay is described as follows: HDAC enzyme activity inhibition assay (HDAC1, fluorimetric kit). In kind it is biochemical. The following applies: 0.3 μg enzyme, 10 μM substrate, 30° C., 60 minutes. How it is done: In order to examine the HDAC6 selectivity of the compounds of formula I of the present invention by HDAC1 and HDAC6 enzymatic activity inhibition assays, an experiment was performed using a conventional substance as a control. HDAC enzyme activity was measured using a HDAC Fluorimetric Drug Discovery Kit (BML-AK511, 516) from Enzo Life Science. For the HDAC1 enzyme activity test, human recombinant HDAC1 (BML-SE456) was used as an enzyme source, and Fluor de Lys®-“SIRT1 (BNL-KI177) was used as a substrate. A 5-fold dilution of the compound was seeded into a 96-well plate, and then 0.3 μg of the enzyme and 10 μM of the substrate were added to each well of the plate and allowed to react at 30° C. for 60 minutes. Then, Fluor de Lys®-Developer II (BML-KI176) was added thereto and allowed to react for 30 minutes, after which the fluorescence value (Ex 360, Em 460) was measured using a multi-plate reader (Flexstation 3, Molecular Device). The HDAC6 enzyme was tested using human recombinant HDAC6 (382180) from Calbiochem, according to the same protocol as the HDAC1 enzyme activity test method. Based on the resulting values, each IC50 value was calculated using GraphPad Prism4.0 program.

Assay [2] deals with T2, human recombinant HDAC6 (Homo sapiens, UniProt Q9UBN7).
T2 construct: purchased Calbiochem 382180
T2 sequence (Q9UBN7 1-1215): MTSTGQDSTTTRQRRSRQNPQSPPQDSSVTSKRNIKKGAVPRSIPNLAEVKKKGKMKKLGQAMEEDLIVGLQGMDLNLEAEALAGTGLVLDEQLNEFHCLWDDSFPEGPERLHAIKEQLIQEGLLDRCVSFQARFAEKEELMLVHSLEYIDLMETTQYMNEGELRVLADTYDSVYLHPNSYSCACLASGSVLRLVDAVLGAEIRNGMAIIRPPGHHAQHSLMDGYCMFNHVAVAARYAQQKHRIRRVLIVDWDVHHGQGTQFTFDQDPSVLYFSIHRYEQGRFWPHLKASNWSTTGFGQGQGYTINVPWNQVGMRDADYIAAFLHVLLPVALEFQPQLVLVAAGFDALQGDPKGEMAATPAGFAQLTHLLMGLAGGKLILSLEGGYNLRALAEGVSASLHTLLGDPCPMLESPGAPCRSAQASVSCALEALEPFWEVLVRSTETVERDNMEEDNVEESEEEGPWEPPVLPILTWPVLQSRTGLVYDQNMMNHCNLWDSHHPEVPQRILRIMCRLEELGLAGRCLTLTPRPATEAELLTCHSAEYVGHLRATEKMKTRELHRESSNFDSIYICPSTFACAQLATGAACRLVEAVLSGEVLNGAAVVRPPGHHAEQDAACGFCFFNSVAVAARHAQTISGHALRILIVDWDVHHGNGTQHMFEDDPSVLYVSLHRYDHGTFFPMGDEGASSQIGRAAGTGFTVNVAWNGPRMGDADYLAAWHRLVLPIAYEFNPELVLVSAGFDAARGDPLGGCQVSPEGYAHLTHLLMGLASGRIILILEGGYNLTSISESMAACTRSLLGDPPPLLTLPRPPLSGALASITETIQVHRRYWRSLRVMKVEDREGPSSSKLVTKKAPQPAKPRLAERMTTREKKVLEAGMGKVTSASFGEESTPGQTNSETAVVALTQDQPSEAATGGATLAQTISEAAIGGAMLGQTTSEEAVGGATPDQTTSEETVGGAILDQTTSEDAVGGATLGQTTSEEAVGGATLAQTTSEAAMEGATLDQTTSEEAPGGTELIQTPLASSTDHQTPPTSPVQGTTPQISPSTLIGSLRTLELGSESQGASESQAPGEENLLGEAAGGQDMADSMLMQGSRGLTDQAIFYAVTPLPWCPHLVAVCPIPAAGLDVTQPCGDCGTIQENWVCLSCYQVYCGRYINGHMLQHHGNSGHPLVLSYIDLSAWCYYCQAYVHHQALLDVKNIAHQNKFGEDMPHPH
The assay is described as follows: HDAC enzyme activity inhibition assay (HDAC6, fluorimetric kit). The conditions noted are these: for HDAC6 selectivity (fold): HDAC6 versus HDAC1; for IC50: same protocol as the HDAC1 test. In kind it is biochemical. The gist of the method: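 Fluorimetric kit assay: human recombinant HDAC1 or HDAC6 (0.3 μg) reacted with 10 μM Fluor de Lys-SIRT1 substrate and 5-fold serially diluted compound for 60 minutes at 30° C, followed by 30 minutes of developer. Fluorescence was read at Ex 360/Em 460, and IC50 values were calculated from it.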

T1 sequence (Q13547 whole entry): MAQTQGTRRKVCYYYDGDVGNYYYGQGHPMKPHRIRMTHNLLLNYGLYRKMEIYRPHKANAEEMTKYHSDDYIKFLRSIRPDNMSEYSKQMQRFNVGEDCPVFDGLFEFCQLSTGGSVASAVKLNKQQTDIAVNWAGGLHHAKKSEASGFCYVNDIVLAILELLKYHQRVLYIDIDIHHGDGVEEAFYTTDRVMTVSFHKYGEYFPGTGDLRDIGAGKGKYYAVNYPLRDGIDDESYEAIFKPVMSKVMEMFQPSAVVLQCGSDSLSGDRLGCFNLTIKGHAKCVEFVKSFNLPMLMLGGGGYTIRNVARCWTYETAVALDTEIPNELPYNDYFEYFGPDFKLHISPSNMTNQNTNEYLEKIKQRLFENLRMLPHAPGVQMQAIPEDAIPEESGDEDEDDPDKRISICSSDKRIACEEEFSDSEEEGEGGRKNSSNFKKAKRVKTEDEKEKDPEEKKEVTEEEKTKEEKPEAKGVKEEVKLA

Regarding `O=C(C1CCN(Cc2ccccc2)CC1)N(Cc1ccc(-c2nnc(C(F)(F)F)o2)cc1)c1ccccc1` [Compound 11166, 1-benzyl-N-phenyl-N-(4-(5-(trifluoromethyl)-1,3,4-oxadiazol-2-yl)benzyl)piperidine-4-carboxamide], the IC50 in assay [1] came to 27200 nM. Besides, in assay [2], the “HDAC6 selectivity (fold)” value came to 194 fold and the 50% inhibitory concentration (IC50) was 516 nM.

In the case of `O=C(CN1CCCC1)N(Cc1ccc(-c2nnc(C(F)F)o2)cc1F)c1ccc(F)c(Cl)c1` [Compound 11534, N-(3-chloro-4-fluorophenyl)-N-(4-(5-(difluoromethyl)-1,3,4-oxadiazol-2-yl)-2-fluorobenzyl)-2-(pyrolidin-1-yl)acetamide], in assay [2], the “HDAC6 selectivity (fold)” value came to 1370 fold and the IC50 was determined as 73 nM.

Regarding `O=C(CN1CCOCC1)N(Cc1ccc(-c2nnc(C(F)F)o2)cc1F)c1ccc(F)c(Cl)c1` [Compound 11535, N-(3-chloro-4-fluorophenyl)-N-(4-(5-(difluoromethyl)-1,3,4-oxadiazol-2-yl)-2-fluorobenzyl)-2-morpholinoacetamide], in assay [2], the “HDAC6 selectivity (fold)” value was found to be 1163 fold and the IC50 came to 86 nM.

Take `O=C(CN1CC[C@H](O)C1)N(Cc1ccc(-c2nnc(C(F)F)o2)cc1F)c1ccc(F)c(Cl)c1` [Compound 11536, (S)-N-(3-chloro-4-fluorophenyl)-N-(4-(5-(difluoromethyl)-1,3,4-oxadiazol-2-yl)-2-fluorobenzyl)-2-(3-hydroxypyrrolidin-1-yl)acetamide]: in assay [2], the “HDAC6 selectivity (fold)” value worked out at 1042 fold and the IC50 is 96 nM.

Regarding `O=C(CN1CCC[C@@H]1CO)N(Cc1ccc(-c2nnc(C(F)F)o2)cc1F)c1ccc(F)c(Cl)c1` [Compound 11537, (R)-N-(3-chloro-4-fluorophenyl)-N-(4-(5-(difluoromethyl)-1,3,4-oxadiazol-2-yl)-2-fluorobenzyl)-2-(2-(hydroxymethyl)pyrrolidin-1-yl)acetamide], in assay [2], the “HDAC6 selectivity (fold)” value came to 1429 fold and the IC50 was determined as 70 nM.

Turning to `NC(=O)[C@@H]1CCCN1CC(=O)N(Cc1ccc(-c2nnc(C(F)F)o2)cc1F)c1ccc(F)c(Cl)c1` [Compound 11538, (S)-1-(2-((3-chloro-4-fluorophenyl) (4-(5-(difluoromethyl)-1,3,4-oxadiazol-2-yl)-2-fluorobenzyl)amino)-2-oxoethyl)pyrrolidine-2-carboxamide], in assay [2], the “HDAC6 selectivity (fold)” value turned out to be 1587 fold and the IC50 amounted to 63 nM.

Regarding `O=C(c1ccncc1)N(Cc1ccc(-c2nnc(C(F)(F)F)o2)cn1)c1ccccc1` [Compound 11584, N-phenyl-N-((5-(5-(trifluoromethyl)-1,3,4-oxadiazol-2-yl)pyridin-2-yl)methyl)isonicotinamide], in assay [2], the “HDAC6 selectivity (fold)” value is given as 1695 fold and the half-inhibitory concentration (IC50) stood at 59 nM.

For `O=C(C1CCS(=O)(=O)CC1)N(Cc1ccc(-c2nnc(C(F)(F)F)o2)cc1F)c1ccc(F)c(Cl)c1` [Compound 11602, N-(3-chloro-4-fluorophenyl)-N-(2-fluoro-4-(5-(trifluoromethyl)-1,3,4-oxadiazol-2-yl)benzyl)tetrahydro-2H-thiopyran-4-carboxamide 1,1-dioxide], in assay [2], the “HDAC6 selectivity (fold)” value was 263 fold and the IC50 is 380 nM.

In the case of `O=C(C1CCS(=O)(=O)CC1)N(Cc1ccc(-c2nnc(C(F)F)o2)cc1F)c1ccc(F)c(Cl)c1` [Compound 11603, N-(3-chloro-4-fluorophenyl)-N-(4-(5-(difluoromethyl)-1,3,4-oxadiazol-2-yl)-2-fluorobenzyl)tetrahydro-2H-thiopyran-4-carboxamide 1,1-dioxide], in assay [2], the “HDAC6 selectivity (fold)” value amounted to 685 fold and the IC50 was found to be 146 nM.

Consider `O=C(CN1CCS(=O)(=O)CC1)N(Cc1ccc(-c2nnc(C(F)F)o2)cc1F)c1ccc(F)c(Cl)c1` [Compound 11610, N-(3-chloro-4-fluorophenyl)-N-(4-(5-(difluoromethyl)-1,3,4-oxadiazol-2-yl)-2-fluorobenzyl)-2-(1,1-dioxidothiomorpholino)acetamide], for which, in assay [2], the “HDAC6 selectivity (fold)” value was determined as 690 fold and the IC50 came to 145 nM.

With `CC(=O)N1CCN(CC(=O)N(Cc2ccc(-c3nnc(C(F)F)o3)cc2F)c2ccc(F)c(Cl)c2)CC1` [Compound 11611, 2-(4-acetylpiperazin-1-yl)-N-(3-chloro-4-fluorophenyl)-N-(4-(5-(difluoromethyl)-1,3,4-oxadiazol-2-yl)-2-fluorobenzyl)acetamide], in assay [2], the “HDAC6 selectivity (fold)” value came to 625 fold and the IC50 is 160 nM.

As to `O=C(C1CC1)N1CCN(CC(=O)N(Cc2ccc(-c3nnc(C(F)F)o3)cc2F)c2ccc(F)c(Cl)c2)CC1` [Compound 11612, N-(3-chloro-4-fluorophenyl)-2-(4-(cyclopropanecarbonyl)piperazin-1-yl)-N-(4-(5-(difluoromethyl)-1,3,4-oxadiazol-2-yl)-2-fluorobenzyl)acetamide], in assay [2], the “HDAC6 selectivity (fold)” value is on record as 535 fold and the IC50 was 187 nM.

On to `CS(=O)(=O)N1CCN(CC(=O)N(Cc2ccc(-c3nnc(C(F)F)o3)cc2F)c2ccc(F)c(Cl)c2)CC1` [Compound 11613, N-(3-chloro-4-fluorophenyl)-N-(4-(5-(difluoromethyl)-1,3,4-oxadiazol-2-yl)-2-fluorobenzyl)-2-(4-(methylsulfonyl)piperazin-1-yl)acetamide], for which, in assay [2], the “HDAC6 selectivity (fold)” value is on record as 676 fold and the IC50 was determined as 148 nM.

In the case of `O=C(CN1CCN(C2COC2)CC1)N(Cc1ccc(-c2nnc(C(F)F)o2)cc1F)c1ccc(F)c(Cl)c1` [Compound 11614, N-(3-chloro-4-fluorophenyl)-N-(4-(5-(difluoromethyl)-1,3,4-oxadiazol-2-yl)-2-fluorobenzyl)-2-(4-(oxetan-3-yl)piperazin-1-yl)acetamide], in assay [2], the “HDAC6 selectivity (fold)” value stood at 1190 fold and the IC50 is 84 nM.

Regarding `O=C(C1CCN(C2COC2)CC1)N(Cc1ccc(-c2nnc(C(F)(F)F)o2)cc1F)c1ccccc1` [Compound 11621, N-(2-fluoro-4-(5-(trifluoromethyl)-1,3,4-oxadiazol-2-yl)benzyl)-1-(oxetan-3-yl)-N-phenylpiperidine-4-carboxamide], in assay [2], the “HDAC6 selectivity (fold)” value worked out at 358 fold and the IC50 came to 279 nM.

In the case of `O=C(C1CCN(C2COC2)CC1)N(Cc1ccc(-c2nnc(C(F)F)o2)cc1F)c1ccccc1` [Compound 11622, N-(4-(5-(difluoromethyl)-1,3,4-oxadiazol-2-yl)-2-fluorobenzyl)-1-(oxetan-3-yl)-N-phenylpiperidine-4-carboxamide], in assay [2], the “HDAC6 selectivity (fold)” value is on record as 714 fold and the IC50 came out at 140 nM.

The values are drawn from US10584117B2, “1,3,4-oxadiazole amide derivative compound as histone deacetylase 6 inhibitor, and pharmaceutical composition containing same” (Chong Kun Dang Pharmaceutical Corp., priority 2015, dated 2020).
